Assay [1] concerns the target T1, Tyrosine-protein kinase JAK2 (Homo sapiens, UniProt O60674). As to the kind of experiment: Inhibition of JAK2 (unknown origin) preincubated for 30 mins followed by ATP addition measured after 30 mins by HTRF assay.
The target in assay [2] is Tyrosine-protein kinase JAK1 (Homo sapiens) (UniProt P23458). As to the kind of experiment: Inhibition of JAK1 (unknown origin) at 100 uM preincubated for 20 mins followed by 33P-ATP addition measured after 2 hrs by HotSpot kinase assay relative to control. Particulars: time 140.0 min.
Chain of Tyrosine-protein kinase JAK1 (Homo sapiens) (P23458 whole entry, canonical isoform): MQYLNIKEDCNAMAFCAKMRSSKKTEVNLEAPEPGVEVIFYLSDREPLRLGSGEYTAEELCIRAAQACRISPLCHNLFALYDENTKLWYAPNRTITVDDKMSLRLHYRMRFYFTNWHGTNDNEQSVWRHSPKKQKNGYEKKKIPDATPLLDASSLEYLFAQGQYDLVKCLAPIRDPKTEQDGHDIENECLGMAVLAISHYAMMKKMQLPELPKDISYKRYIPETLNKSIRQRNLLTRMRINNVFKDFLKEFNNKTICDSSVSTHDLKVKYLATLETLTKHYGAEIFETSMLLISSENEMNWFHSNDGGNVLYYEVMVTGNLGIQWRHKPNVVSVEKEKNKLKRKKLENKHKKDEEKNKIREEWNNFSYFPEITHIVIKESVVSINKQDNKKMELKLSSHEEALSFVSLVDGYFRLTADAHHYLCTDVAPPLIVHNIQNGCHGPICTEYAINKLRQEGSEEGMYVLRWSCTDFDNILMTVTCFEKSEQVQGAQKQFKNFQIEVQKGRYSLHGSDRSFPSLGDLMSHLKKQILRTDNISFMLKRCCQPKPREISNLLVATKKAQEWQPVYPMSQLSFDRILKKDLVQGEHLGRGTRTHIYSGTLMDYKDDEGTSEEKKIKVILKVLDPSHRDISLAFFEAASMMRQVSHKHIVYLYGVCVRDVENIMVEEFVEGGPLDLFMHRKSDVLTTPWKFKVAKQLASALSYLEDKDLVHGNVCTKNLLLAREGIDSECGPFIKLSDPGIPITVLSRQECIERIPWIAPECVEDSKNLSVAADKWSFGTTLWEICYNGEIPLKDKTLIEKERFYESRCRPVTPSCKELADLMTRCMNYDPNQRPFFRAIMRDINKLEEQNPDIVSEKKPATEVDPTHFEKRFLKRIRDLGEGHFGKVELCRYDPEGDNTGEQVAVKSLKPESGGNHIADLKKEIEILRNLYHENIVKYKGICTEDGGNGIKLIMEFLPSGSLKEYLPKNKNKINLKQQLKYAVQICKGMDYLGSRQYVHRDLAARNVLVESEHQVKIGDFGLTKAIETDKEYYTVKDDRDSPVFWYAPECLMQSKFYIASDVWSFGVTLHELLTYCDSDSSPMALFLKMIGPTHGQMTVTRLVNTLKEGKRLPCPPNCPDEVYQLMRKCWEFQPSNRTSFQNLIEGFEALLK
Assay [3] addresses Phosphatidylinositol 4,5-bisphosphate 3-kinase catalytic subunit gamma isoform (Homo sapiens) (UniProt P48736). As to the kind of experiment: Inhibition of PI3Kg (unknown origin) at 100 uM preincubated for 20 mins followed by 33P-ATP addition measured after 2 hrs by HotSpot kinase assay relative to control. Particulars: time 140.0 min.
Assay [4] addresses Cyclin-dependent kinase 6 (Homo sapiens) (UniProt Q00534). As to the kind of experiment: Inhibition of CDK6 (unknown origin) at 100 uM preincubated for 20 mins followed by 33P-ATP addition measured after 2 hrs by HotSpot kinase assay relative to control. Conditions: time 140.0 min.
The target in assay [5] is T1, Tyrosine-protein kinase JAK2. Nature of the assay: Inhibition of JAK2 (unknown origin) at 100 uM preincubated for 20 mins followed by 33P-ATP addition measured after 2 hrs by HotSpot kinase assay relative to control. Particulars: time 140.0 min.
The target of assay [6] is Tyrosine-protein kinase SYK (Homo sapiens) (UniProt P43405). As to the kind of experiment: Inhibition of SYK (unknown origin) at 100 uM preincubated for 20 mins followed by 33P-ATP addition measured after 2 hrs by HotSpot kinase assay relative to control. Conditions: time 140.0 min.
The target of assay [7] is Tyrosine-protein kinase JAK3 (Homo sapiens) (UniProt P52333). Nature of the assay: Inhibition of JAK3 (unknown origin) at 100 uM preincubated for 20 mins followed by 33P-ATP addition measured after 2 hrs by HotSpot kinase assay relative to control. Particulars: time 140.0 min.
The target of assay [8] is Phosphatidylinositol 4,5-bisphosphate 3-kinase catalytic subunit alpha isoform (Homo sapiens) (UniProt P42336). As to the kind of experiment: Inhibition of PI3Ka (unknown origin) at 100 uM preincubated for 20 mins followed by 33P-ATP addition measured after 2 hrs by HotSpot kinase assay relative to control. Particulars: time 140.0 min.
For assay [9], the target named is Tyrosine-protein kinase BTK (Homo sapiens) (UniProt Q06187). As to the kind of experiment: Inhibition of BTK (unknown origin) at 100 uM preincubated for 20 mins followed by 33P-ATP addition measured after 2 hrs by HotSpot kinase assay relative to control. Conditions: time 140.0 min.
Chain of Tyrosine-protein kinase BTK (Homo sapiens) (Q06187 whole entry, the tested form may be a part): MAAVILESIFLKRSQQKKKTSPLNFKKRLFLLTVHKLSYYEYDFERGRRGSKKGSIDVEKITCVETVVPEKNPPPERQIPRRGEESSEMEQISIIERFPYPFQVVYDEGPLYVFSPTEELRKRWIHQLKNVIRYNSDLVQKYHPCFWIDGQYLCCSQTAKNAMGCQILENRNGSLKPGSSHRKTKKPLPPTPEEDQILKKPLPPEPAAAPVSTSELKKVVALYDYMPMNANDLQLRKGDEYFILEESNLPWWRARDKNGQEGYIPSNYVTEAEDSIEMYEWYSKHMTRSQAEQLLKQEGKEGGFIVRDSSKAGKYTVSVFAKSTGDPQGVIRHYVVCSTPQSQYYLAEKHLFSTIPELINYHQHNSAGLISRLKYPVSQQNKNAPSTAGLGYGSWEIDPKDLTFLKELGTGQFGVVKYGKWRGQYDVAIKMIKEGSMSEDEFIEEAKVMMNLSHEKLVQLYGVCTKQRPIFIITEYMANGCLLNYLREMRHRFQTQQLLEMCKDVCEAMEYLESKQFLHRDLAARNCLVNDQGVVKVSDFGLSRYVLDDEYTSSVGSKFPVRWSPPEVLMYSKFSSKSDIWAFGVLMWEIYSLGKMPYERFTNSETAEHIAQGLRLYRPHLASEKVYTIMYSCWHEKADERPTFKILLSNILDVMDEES
Assay [10] deals with Tyrosine-protein kinase JAK3 (Homo sapiens, UniProt P52333). Nature of the assay: Inhibition of recombinant human JAK3 (781 to 1124 residues) in presence of ATP by ELISA.
The test system of assay [11] is NAMALVA. Nature of the assay: Cytotoxicity against human NAMALVA cells assessed as cell growth inhibition at 0.1 to 10.5 uM by MTT assay. It is filed as functional, cell-based. Particulars: dose 0.1-10.5 µM, time lower 24.0 hrs, time upper […], TDE = time-dependent effect. On the technique in general: Tetrazolium dyes change colour on reduction, which living cells bring about.

Assay [12] deals with Cyclin-dependent kinase 4 (Homo sapiens) (UniProt P11802). Nature of the assay: Inhibition of CDK4 (unknown origin) at 100 uM preincubated for 20 mins followed by 33P-ATP addition measured after 2 hrs by HotSpot kinase assay relative to control. Conditions: time 140.0 min.
Assay [13] concerns the target High affinity nerve growth factor receptor (Homo sapiens) (UniProt P04629). Nature of the assay: Inhibition of TRKa (unknown origin) at 100 uM preincubated for 20 mins followed by 33P-ATP addition measured after 2 hrs by HotSpot kinase assay relative to control. Conditions: time 140.0 min.
Assay [14] concerns Jurkat. Nature of the assay: Induction of apoptosis in human Jurkat cells at IC50 measured after 48 hrs by flow cytometry. It is filed as functional, cell-based.
Assay [15] has as its system Jurkat. As to the kind of experiment: Cytotoxicity against human Jurkat cells assessed as cell growth inhibition at 0.05 to 1.2 uM by MTT assay. The format is functional, cell-based. Particulars: dose 0.05-1.2 µM, time lower 24.0 hrs, time upper […], TDE = time-dependent effect.
In assay [16] the test system is NAMALVA. As to the kind of experiment: Cytotoxicity against human NAMALVA cells assessed as cell growth inhibition at 0.1 to 9.9 uM by MTT assay. The format is functional, cell-based. Particulars: dose 0.1-9.9 µM, time lower 24.0 hrs, time upper […], TDE = time-dependent effect.
For a further assay, the system named is U-937. As to the kind of experiment: Cytotoxicity against human U-937 cells assessed as cell growth inhibition at 0.7 to 2.5 uM by MTT assay. It is filed as functional, cell-based. Particulars: dose 0.7-2.5 µM, time lower 24.0 hrs, time upper […], TDE = time-dependent effect.

What is called IC50 is the concentration needed to halve the response being measured. For orientation: inhibition means the percentage by which the read-out fell short of the control.

The source made the active and inactive calls. The calls are words filed in the database; no cut-off is given here.

T1 sequence (O60674 whole entry): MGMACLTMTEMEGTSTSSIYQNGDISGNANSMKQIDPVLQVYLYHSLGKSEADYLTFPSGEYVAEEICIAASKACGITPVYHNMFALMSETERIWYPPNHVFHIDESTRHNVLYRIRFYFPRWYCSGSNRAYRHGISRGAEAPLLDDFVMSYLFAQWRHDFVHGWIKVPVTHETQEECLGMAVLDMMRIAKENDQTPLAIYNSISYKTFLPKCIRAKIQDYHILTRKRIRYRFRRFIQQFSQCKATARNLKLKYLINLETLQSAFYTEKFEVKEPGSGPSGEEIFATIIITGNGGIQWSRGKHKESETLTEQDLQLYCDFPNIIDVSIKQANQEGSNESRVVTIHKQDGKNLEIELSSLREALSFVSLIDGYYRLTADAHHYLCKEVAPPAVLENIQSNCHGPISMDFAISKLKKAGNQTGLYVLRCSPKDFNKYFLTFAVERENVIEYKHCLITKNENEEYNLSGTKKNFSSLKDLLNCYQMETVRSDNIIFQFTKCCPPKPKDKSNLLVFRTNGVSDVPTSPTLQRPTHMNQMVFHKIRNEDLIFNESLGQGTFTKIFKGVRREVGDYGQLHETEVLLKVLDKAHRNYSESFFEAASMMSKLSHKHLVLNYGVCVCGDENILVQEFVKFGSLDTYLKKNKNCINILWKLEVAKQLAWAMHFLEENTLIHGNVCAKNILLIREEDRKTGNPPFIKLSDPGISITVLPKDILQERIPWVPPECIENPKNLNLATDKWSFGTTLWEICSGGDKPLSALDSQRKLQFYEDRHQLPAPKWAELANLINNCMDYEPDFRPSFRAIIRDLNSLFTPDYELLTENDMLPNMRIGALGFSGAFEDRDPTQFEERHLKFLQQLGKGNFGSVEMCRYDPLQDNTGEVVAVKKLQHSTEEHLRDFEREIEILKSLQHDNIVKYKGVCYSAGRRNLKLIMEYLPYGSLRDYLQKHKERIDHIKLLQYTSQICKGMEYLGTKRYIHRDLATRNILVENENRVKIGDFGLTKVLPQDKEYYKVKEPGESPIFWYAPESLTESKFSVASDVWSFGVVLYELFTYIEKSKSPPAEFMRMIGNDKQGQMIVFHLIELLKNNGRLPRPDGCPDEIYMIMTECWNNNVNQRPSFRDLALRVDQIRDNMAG
Chain of High affinity nerve growth factor receptor (Homo sapiens) (P04629 33-796 limits assumed): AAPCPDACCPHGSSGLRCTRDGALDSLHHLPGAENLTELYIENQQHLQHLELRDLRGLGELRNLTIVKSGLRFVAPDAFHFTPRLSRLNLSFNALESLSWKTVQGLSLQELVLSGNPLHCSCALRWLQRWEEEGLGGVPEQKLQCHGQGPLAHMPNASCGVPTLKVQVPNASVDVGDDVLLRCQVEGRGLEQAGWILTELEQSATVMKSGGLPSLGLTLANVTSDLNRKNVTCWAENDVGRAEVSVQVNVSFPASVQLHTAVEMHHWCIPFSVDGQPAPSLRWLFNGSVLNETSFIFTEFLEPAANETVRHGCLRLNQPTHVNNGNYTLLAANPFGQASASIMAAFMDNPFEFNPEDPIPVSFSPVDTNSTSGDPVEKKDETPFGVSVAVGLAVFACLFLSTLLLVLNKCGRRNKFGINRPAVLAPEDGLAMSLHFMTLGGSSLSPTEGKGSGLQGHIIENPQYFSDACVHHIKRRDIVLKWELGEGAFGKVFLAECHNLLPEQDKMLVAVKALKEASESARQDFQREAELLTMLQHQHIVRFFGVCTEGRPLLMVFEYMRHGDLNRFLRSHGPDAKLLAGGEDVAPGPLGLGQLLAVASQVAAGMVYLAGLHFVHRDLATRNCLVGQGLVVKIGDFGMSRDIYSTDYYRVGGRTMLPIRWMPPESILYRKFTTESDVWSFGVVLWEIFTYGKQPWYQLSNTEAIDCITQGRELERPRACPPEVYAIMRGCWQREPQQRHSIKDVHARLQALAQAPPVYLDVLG
Chain of Phosphatidylinositol 4,5-bisphosphate 3-kinase catalytic subunit gamma isoform (Homo sapiens) (P48736 whole entry, looked up, canonical isoform): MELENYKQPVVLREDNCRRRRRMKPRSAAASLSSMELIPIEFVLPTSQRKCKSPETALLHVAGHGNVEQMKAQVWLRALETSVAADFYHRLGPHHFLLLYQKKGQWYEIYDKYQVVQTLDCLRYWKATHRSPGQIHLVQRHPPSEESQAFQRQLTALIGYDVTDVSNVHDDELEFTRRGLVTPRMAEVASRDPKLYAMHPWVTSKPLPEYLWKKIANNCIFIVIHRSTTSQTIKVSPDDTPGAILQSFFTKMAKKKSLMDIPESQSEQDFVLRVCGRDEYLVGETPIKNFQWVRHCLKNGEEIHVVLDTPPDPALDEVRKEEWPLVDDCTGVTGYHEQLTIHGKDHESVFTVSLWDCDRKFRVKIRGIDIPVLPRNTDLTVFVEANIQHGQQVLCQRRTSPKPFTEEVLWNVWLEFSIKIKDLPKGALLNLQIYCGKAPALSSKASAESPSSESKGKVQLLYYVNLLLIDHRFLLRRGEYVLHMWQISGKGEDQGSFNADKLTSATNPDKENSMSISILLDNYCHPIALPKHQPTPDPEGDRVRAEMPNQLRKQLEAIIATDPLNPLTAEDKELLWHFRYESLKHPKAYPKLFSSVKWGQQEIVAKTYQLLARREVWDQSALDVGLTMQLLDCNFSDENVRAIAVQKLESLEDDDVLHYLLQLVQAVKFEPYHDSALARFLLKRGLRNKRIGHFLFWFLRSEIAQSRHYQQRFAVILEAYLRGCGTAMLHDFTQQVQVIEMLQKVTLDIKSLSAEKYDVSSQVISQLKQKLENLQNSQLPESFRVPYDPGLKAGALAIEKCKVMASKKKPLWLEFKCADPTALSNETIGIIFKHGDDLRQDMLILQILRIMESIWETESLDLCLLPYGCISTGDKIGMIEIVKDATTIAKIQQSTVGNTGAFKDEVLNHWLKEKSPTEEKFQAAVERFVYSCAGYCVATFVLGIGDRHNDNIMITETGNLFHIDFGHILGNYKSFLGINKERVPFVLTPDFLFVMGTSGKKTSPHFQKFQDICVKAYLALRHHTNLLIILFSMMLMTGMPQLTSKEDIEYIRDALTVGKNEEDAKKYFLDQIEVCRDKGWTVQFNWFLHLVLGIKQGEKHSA

As for `O=C(NO)c1ccc(Cn2cnc3c(Nc4ccc(F)c(Cl)c4)ncnc32)cc1`, the concentration for half-maximal inhibition (IC50) came out at 34.6 µM in assay [1] and 2.59 µM in [10]. The inhibition worked out at 63.2% in assay [2]; 44.2% in assay [3]; 38.6% in assay [4]; 99.5% in assay [5]; 71.2% in assay [6]; 94.5% in [7]. In addition, the inhibition in assay [8] is 29.8%; in assay [9], 99.2%; in the assay on NAMALVA [11], “Tde”; in [12], 73.2%; in [13] it was 99.9%.
Take `COc1ccc(Nc2ncnc3c2ncn3Cc2ccc(C(=O)NO)cc2)cc1`: the outcome with Jurkat [14] was Active. For the same compound, the inhibition entry with Jurkat [15], in the assay on NAMALVA [16] and with U-937 was “Tde” throughout.

Source of the values: ChEMBL document CHEMBL5532651, “HDAC specificity and kinase off-targeting by purine-benzohydroxamate anti-hematological tumor agents” (Eur J Med Chem, 2024).
